The values that follow are results of earlier work, collected in patent US11786526B2, “Pharmaceutical composition comprising rosuvastatin and ezetimibe and a preparation method thereof” (SANOFI, priority 2016, dated 2023).

Assay in data set [1]: not given
This is another data set of the same source.

Take `O=C1[C@H](CC[C@H](O)c2ccc(F)cc2)[C@@H](c2ccc(O)cc2)N1c1ccc(F)cc1` [Ezetimibe, (3R,4S)-1-(4-fluorophenyl)-3-[(3S)-3-(4-fluorophenyl)-3-hydroxypropyl]-4-(4-hydroxyphenyl)azetidin-2-one]: the Solubility in water result is reported as “almost insoluble in water”.

On to `CC(C)c1nc(N(C)S(C)(=O)=O)nc(-c2ccc(F)cc2)c1/C=C/[C@@H](O)C[C@@H](O)CC(=O)O` [rosuvastatin, (3R,5S,6E)-7-[4-(4-fluorophenyl)-2-(N-methylmethanesulfonamido)-6-(propan-2-yl)pyrimidin-5-yl]-3,5-dihydroxyhept-6-enoic acid], for which the “Stability in an acidic environment” value in data set [1] was “unstable in an acidic environment”.
